For six compounds, IC50 results are on record in US11753413B2, “Substituted pyrrolo[2,1-f][1,2,4]triazine compounds as JAK2 V617F inhibitors” (Incyte Corporation, priority 2020, dated 2023).

The target of assay [1] is T1, pseudo-kinase domain (JH2) of human V617F mutant JAK2 (Homo sapiens, UniProt O60674, F794H/V617F/W659A/W777A).
T1 construct: JH2, amino-acids 536-812 with 3 surface mutations; His (C); purchased BPS Bioscience 79498; host or cells: baculovirus expression system
Put plainly: JAK2 LanthaScreen JH2-V617F Binding Assay. The following applies: read-out: JH2 BIND V617F. The procedure: Example C. JAK2 LanthaScreen JH2-V617F Binding Assay
(§1) JAK2 JH2-V617F binding assay utilizes pseudo-kinase domain (JH2, amino-acids 536-812 with 3 surface mutations W659A, W777A, F794H) of human V617F mutant JAK2 expressed as C-terminal His-Avi-tagged, biotinylated protein in a baculovirus expression system (BPS Bioscience, Catalog #79498). The assay was conducted in black 384-well polystyrene plates in a final reaction volume of 20 μL. JAK2 JH2-V617F (0.26 nM) was incubated with compounds (100 nL serially diluted in DMSO) in the presence of 50 nM Fluorescent JAK2-JH2 Tracer (MedChem Express Catalog #HY-102055) and 0.25 nM Streptavidin-Tb cryptate (Cisbio Part #610SATLB) in assay buffer (50 mM Tris, pH=7.5, 10 mM MgCl2, 0.01% Brij-35, 0.1% BSA, 1 mM EGTA, 5% Glycerol and 5 mM DTT). Non-specific binding was accessed in the presence of 2 mM ATP. After incubation for 1 hour at 25° C., LanthaScreen signals were read on a PHERAstar FS plate reader (BMG LABTECH). Data was analyzed with IDBS XLfit and GraphPad Prism 5.0 software using a four parameter dose response curve to determine IC50 for each compound.

For assay [2], the target named is T2, pseudo-kinase domain (JH2) of human Wild Type JAK2 (Homo sapiens, UniProt O60674, F794H/W659A/W777A).
T2 construct: JH2, amino-acids 536-812 with 3 surface mutations; His (C); purchased BPS Bioscience 79463; host or cells: baculovirus expression system
Put plainly: JAK2 LanthaScreen JH2-WT Binding Assay. Conditions: read-out: JH2 BIND WT. The procedure: Example B. JAK2 LanthaScreen JH2-WT Binding Assay
as §1, with “JH2-WT” for “JH2-V617F”, “Wild Type” for “V617F mutant”, “#79463).” for “#79498).”, “JH2-WT (0.145” for “JH2-V617F (0.26”

Assay [3] has as its target T3, catalytic domain (JH1) of human JAK2 (Homo sapiens, UniProt O60674). Put plainly: JAK2 HTRF Enzyme Activity Assay. In kind it is biochemical. Details: JH1, amino acids 808-1132; His (N); purchased BPS Bioscience 40450; host or cells: baculovirus expression system. Conditions: ATP 30 μM or 1 mM (not given), read-out: ENZ. The procedure: Example D. JAK2 HTRF Enzyme Activity Assay
JAK2 enzyme activity assays utilize catalytic domain (JH1, amino acids 808-1132) of human JAK2 expressed as N-terminal His-tagged protein in a baculovirus expression system (BPS Bioscience, Catalog #40450). The assays was conducted in black 384-well polystyrene plates in a final reaction volume of 20 μL. JAK2 (0.015 nM) was incubated with compounds (100 nL serially diluted in DMSO) in the presence of ATP (30 μM or 1 mM) and 500 nM Biotin-labeled EQEDEPEGDYFEWLE (SEQ ID NO.: 1) peptide (BioSource International, custom synthesis) in assay buffer (50 mM Tris, pH=7.5, 10 mM MgC2, 0.01% Brij-35, 0.1% BSA, 1 mM EGTA, 5% Glycerol and 5 mM DTT) for 60 minutes at 25° C. The reactions were stopped by the addition of 10 μL of detection buffer (50 mM Tris, pH 7.8, 0.5 mg/mL BSA, 150 mM NaCl), supplemented with EDTA, LANCE Eu-W1024 anti-phosphotyrosine (PY20), (PerkinElmer, Catalog #AD0067) and Streptavidin SureLight APC (PerkinElmer Catalog #CR130-100), for a final concentration of 15 mM, 1.5 nM and 75 nM, respectively. HTRF signals were read after 30 minutes incubation at room temperature on a PHERAstar FS plate reader (BMG LABTECH). Data was analyzed with IDBS XLfit and GraphPad Prism 5.0 software using a four parameter dose response curve to determine IC50 for each compound.
Target sequence in this assay (O60674 808-1132): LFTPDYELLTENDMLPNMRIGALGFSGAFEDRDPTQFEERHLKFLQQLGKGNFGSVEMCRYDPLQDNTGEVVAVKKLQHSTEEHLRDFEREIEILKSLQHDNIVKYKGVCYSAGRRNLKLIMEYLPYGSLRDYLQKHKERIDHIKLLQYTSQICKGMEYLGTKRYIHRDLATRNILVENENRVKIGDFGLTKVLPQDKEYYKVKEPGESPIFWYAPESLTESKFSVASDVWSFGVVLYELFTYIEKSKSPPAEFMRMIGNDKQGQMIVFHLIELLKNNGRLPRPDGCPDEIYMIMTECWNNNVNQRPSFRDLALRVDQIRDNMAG

In assay [4] the target is T3, catalytic domain (JH1) of human JAK2. Put plainly: JAK2 LanthaScreen JH1 Binding Assay. Further details: JH1, amino acids 826-1132; FLAG (N); purchased Carna Biosciences 08-445-20N; host or cells: baculovirus expression system. The following applies: read-out: JH1 BIND. The procedure:
Example A. JAK2 LanthaScreen JH1 Binding Assay
JAK2 JH1 binding assay utilizes catalytic domain (JH1, amino acids 826-1132) of human JAK2 expressed as N-terminal FLAG-tagged, biotinylated protein in a baculovirus expression system (Carna Biosciences, Product #08-445-20N). The assay was conducted in black 384-well polystyrene plates in a final reaction volume of 20 μL. JAK2 JH1 (1.5 nM) was incubated with compounds (100 nL serially diluted in DMSO) in the presence of 50 nM fluorescent JAK2-JH1 tracer and 0.5 nM Streptavidin-Tb cryptate (Cisbio Part #610SATLB) in assay buffer (50 mM Tris, pH=7.5, 10 mM MgCl2, 0.01% Brij-35, 0.1% BSA, 1 mM EGTA, 5% Glycerol and 5 mM DTT). Non-specific binding was accessed in the presence of 2 mM ATP. After incubation for 2 hours at 25° C., LanthaScreen signals were read on a PHERAstar FS plate reader (BMG LABTECH). Data was analyzed with IDBS XLfit and GraphPad Prism 5.0 software using a four parameter dose response curve to determine IC50 for each compound.
Target sequence in this assay (O60674 826-1132): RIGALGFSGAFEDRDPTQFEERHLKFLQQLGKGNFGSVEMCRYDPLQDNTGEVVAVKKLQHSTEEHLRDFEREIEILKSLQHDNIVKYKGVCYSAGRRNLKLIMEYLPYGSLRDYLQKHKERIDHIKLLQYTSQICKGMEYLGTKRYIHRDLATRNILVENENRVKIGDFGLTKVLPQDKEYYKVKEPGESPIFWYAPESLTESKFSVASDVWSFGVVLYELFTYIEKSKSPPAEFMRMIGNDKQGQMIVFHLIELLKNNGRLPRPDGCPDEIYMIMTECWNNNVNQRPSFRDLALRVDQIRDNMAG

T1 sequence (O60674 536-812 V617F/W659A/W777A/F794H): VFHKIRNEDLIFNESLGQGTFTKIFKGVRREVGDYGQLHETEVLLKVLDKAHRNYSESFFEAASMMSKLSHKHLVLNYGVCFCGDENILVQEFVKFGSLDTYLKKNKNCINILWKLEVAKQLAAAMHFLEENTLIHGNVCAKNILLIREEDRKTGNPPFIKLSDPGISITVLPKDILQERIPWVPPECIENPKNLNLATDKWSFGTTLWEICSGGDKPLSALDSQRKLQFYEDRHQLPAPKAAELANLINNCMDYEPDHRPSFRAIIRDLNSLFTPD
T2 sequence (O60674 536-812 W659A/W777A/F794H): as the sequence (O60674 536-812 V617F/W659A/W777A/F794H) above, with F82V counted along it

Take `CCS(=O)(=O)Nc1ccc(Cn2cc(-c3ccn4nc(NC(=O)C5CC5)nc(Nc5cccc(C(F)(F)F)c5OC)c34)cn2)cc1` [Example 1, N-(5-(1-(4-(Ethylsulfonamido)benzyl)-1H-pyrazol-4-yl)-4-((2-methoxy-3-(trifluoromethyl)phenyl)amino)pyrrolo[2,1-f][1,2,4]triazin-2-yl)cyclopropanecarboxamide]: the IC50 was not above 0.1 µM in assay [1], not above 0.1 µM in assay [2], more than 10 µM in assay [3] and more than 10 µM in assay [4].
On to `COc1c(Nc2nc(NC(=O)C3CC3)nn3ccc(-c4cnn(Cc5ccc(NS(=O)(=O)C6CC6)cc5)c4)c23)cccc1C(F)(F)F` [Example 2, N-(5-(1-(4-(Cyclopropanesulfonamido)benzyl)-1H-pyrazol-4-yl)-4-((2-methoxy-3-(trifluoromethyl)phenyl)amino)pyrrolo[2,1-f][1,2,4]triazin-2-yl)cyclopropanecarboxamide], for which the IC50 in assay [1] is not above 0.1 µM; in assay [2], not above 0.1 µM; in assay [3], more than 10 µM; in assay [4], more than 10 µM.
Consider `CCS(=O)(=O)Nc1ccc(Cn2cc(-c3ccn4nc(NC(=O)C5CC5)nc(Nc5cccc(-c6ncn(C)n6)c5OC)c34)cn2)cc1` [Example 3, N-(5-(1-(4-(Ethylsulfonamido)benzyl)-1H-pyrazol-4-yl)-4-((2-methoxy-3-(1-methyl-1H-1,2,4-triazol-3-yl)phenyl)amino)pyrrolo[2,1-f][1,2,4]triazin-2-yl)cyclopropanecarboxamide], for which the IC50 in assay [1] was 0.1 to 0.5 µM; in assay [2] it was not above 0.1 µM; in assay [3] it was more than 10 µM; in assay [4], more than 10 µM.
Consider `COc1c(Nc2nc(NC(=O)C3CC3)nn3ccc(-c4cnn(Cc5ccc(NS(C)(=O)=O)cc5)c4)c23)cccc1-c1ncn(C)n1` [Example 4, N-(4-((2-Methoxy-3-(1-methyl-1H-1,2,4-triazol-3-yl)phenyl)amino)-5-(1-(4-(methylsulfonamido)benzyl)-1H-pyrazol-4-yl)pyrrolo[2,1-f][1,2,4]triazin-2-yl)cyclopropanecarboxamide], for which the IC50 in assay [1] was 0.1 to 0.5 µM; in assay [2], 0.1 to 0.5 µM; in assay [3] it was more than 10 µM; in assay [4], more than 10 µM.
On to `COc1c(Nc2nc(NC(=O)C3CC3)nn3ccc(-c4cnn(Cc5cccnc5)c4)c23)cccc1C(F)(F)F` [Example 5, N-(4-((2-Methoxy-3-(trifluoromethyl)phenyl)amino)-5-(1-(pyridin-3-ylmethyl)-1H-pyrazol-4-yl)pyrrolo[2,1-f][1,2,4]triazin-2-yl)cyclopropanecarboxamide], for which the IC50 in assay [1] was 1 to 10 µM; in assay [2] it was 1 to 10 µM; in assay [3], more than 10 µM; in assay [4], more than 10 µM.
As to `COc1c(Nc2nc(NC(=O)C3CC3)nn3ccc(-c4cnn(Cc5ccc(C(=O)O)cc5)c4)c23)cccc1C(F)(F)F` [Example 6, 4-((4-(2-(Cyclopropanecarboxamido)-4-((2-methoxy-3-(trifluoromethyl)phenyl)amino)pyrrolo[2,1-f][1,2,4]triazin-5-yl)-1H-pyrazol-1-yl)methyl)benzoic acid], the IC50 in assay [1] is not above 0.1 µM; in assay [2], not above 0.1 µM; in assay [3] it was 1 to 10 µM; in assay [4], 1 to 10 µM.
